Laboratory results as given in US8486885B2, “β-arrestin effectors and compositions and methods of use thereof” (Trevena, Inc., priority 2008, dated 2013).
Non-standard residues stand in square brackets, D forms with d. Residues, ends and D or L forms follow the SMILES beside them. Sar = CNCC(=O)O

Experiments:
Format in all cases: cell-based
[1] = biological target: T1, human angiotensin 2 type 1 receptor (human AT1R) (Homo sapiens, UniProt P30556); test: IP1 accumulation assay (IP-One Tb), human AT1R; conditions: cells expressing human AT1R
T1 construct: expressed in transfected cells
T1 sequence (P30556 1-359): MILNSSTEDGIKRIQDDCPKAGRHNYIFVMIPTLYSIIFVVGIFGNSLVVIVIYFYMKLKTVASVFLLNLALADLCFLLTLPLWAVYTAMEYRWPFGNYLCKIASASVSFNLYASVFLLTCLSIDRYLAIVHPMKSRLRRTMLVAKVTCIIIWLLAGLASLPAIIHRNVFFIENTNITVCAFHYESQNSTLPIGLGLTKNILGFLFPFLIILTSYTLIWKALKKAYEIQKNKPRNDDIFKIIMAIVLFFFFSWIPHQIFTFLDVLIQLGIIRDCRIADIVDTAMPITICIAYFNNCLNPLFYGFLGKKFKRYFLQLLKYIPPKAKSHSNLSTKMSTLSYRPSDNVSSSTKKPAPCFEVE
Procedure: (§1) A secondary measure of G protein coupling efficacy was also performed. IP3 is generated by activation of phospholipase C by Gα-q. IP3 is degraded to IP1, which can be forced to accumulate in cells by blocking degradation with lithium chloride. Thus we measured accumulation of IP1 to determine ligand efficacy for G protein activation.
(§2) IP1 accumulation generated by human and rat angiotensin 2 type 1 receptor (human AT1R and rat AT1aR, respectively) was measured with IP-One Tb kits purchased from Cisbio and used per the manufacturer's instructions. Clonal stably transfected cell lines expressing human AT1TR or rat AT1aR were used for all experiments.
(§3) For assays, 4,000 cells were seeded per well in 384-well small-volume microplates in volumes of 20 uL and allowed to grow overnight at 37° C. in 5% CO2. Cell growth media was then replaced with stimulation buffer supplied by Cisbio containing 50 mM lithium chloride. Peptides TRV-120,001 through TRV-120,035 were dissolved in deionized water to a concentration of 1 mM. For agonist detection, peptides were then further diluted in stimulation buffer to add peptide to the cells to reach final concentrations ranging from 10 uM to 1 pM. […] Following addition of peptides, cells were incubated at 37° C. in 5% CO2 for 30 minutes and then lysed with detection reagents added per manufacturer's instructions.

[2] = biological target: T2, rat angiotensin 2 type 1 receptor (rat AT1aR) (Rattus norvegicus, UniProt P25095); test: IP1 accumulation assay (IP-One Tb), rat AT1aR; conditions: cells expressing rat AT1aR
T2 construct: expressed in transfected cells
T2 sequence (P25095 1-359): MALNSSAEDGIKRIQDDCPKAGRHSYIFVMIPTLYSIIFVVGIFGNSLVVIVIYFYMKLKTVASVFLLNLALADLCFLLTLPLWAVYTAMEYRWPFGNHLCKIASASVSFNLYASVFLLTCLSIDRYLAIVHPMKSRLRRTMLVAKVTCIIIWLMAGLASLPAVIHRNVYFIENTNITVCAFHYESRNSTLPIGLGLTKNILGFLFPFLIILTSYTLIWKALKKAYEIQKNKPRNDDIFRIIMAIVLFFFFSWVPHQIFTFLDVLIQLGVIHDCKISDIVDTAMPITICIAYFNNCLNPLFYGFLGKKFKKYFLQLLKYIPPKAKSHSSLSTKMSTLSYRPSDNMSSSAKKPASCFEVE
Procedure: as §1, §2, §3

[3] = biological target: rat angiotensin 2 type 1 receptor (rat AT1aR) (Rattus norvegicus, UniProt P25095); test: PathHunter β-arrestin-2 recruitment assay, rat AT1aR; conditions: PathHunter β-arrestin HEK293 cells; for EC50: read-out: rat AT1aR b-arrestin2 EC50
Procedure: (§4) The proximal event in β-arrestin function mediated by GPCRs is recruitment to receptors following ligand binding and receptor phosphorylation by GRK's. Thus, the measure of β-arrestin recruitment was used to determine ligand efficacy for β-arrestin function.
(§5) B-arrestin-2 recruitment to the human and rat angiotensin 2 type 1 receptor (human AT1R and rat AT1aR, respectively) was measured with the PathHunter™ β-arrestin assay (DiscoveRx Corporation, Fremont Calif.). Cells, plasmid(s), and detection reagent(s) were purchased from DiscoveRx, and assays were performed per manufacturer's instructions. Human AT1R and rat AT1aR were cloned into the pCMV-ProLink vector, verified by sequencing, and transfected into PathHunter β-arrestin HEK293 cells. Stably transfected clonal cell lines were selected with Hygromycin and G418. These clonal cell lines were used for all experiments.
(§6) For assays, 25,000 cells were seeded per well in 96-well microplates in volumes of 90 μL and allowed to grow overnight at 37° C. in 5% CO2. Peptides of the invention were dissolved in deionized water to a concentration of 1 mM. Peptides were then further diluted in assay buffer (Hank's balanced salt solution with 20 mM HEPES) to add peptide to the cells to reach final concentrations ranging from 10 μM to 1 pM. Cells were then incubated for 60 minutes at 37° C. in 5% CO2, followed by addition of 50 μL of PathHunter Detection Reagent to each well. The microplates were then incubated at room temperature for 60 minutes, and then luminescence was measured using a NOVOstar microplate reader purchased from BMG Labtech. B-arrestin-2 recruitment to receptors was measured as relative luminescence intensity expressed in arbitrary units.
Target sequence in this assay (P32121 whole entry partner, one chain of several): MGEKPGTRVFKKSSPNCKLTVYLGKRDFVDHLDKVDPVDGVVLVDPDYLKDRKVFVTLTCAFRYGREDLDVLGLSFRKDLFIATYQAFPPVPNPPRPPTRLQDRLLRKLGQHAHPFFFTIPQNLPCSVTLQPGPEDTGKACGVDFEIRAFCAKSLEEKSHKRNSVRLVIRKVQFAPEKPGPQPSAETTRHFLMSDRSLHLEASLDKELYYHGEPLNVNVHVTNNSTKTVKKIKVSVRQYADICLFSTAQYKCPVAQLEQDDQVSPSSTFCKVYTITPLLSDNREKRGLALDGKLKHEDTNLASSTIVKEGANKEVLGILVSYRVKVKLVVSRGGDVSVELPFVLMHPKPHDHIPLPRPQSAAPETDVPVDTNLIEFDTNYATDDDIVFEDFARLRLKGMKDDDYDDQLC

[4] = biological target: human angiotensin 2 type 1 receptor (human AT1R) (Homo sapiens, UniProt P30556); test: PathHunter β-arrestin-2 recruitment assay, human AT1R; conditions: PathHunter β-arrestin HEK293 cells; for EC50: read-out: human AT1R b-arrestin2 EC50
Procedure: as §4, §5, §6
Target sequence in this assay (P32121 whole entry partner, one chain of several): as above

SMILES | human AT1R IP One EC50 (M) [1] | rat AT1aR IP One EC50 (M) [2] | rat AT1aR b-arrestin2 Max (%) [3] | EC50 [3] | human AT1R b-arrestin2 Max (%) [4] | EC50 [4] | EC50 [2] | rat AT1aR IP One Max (%) [2]
CNCC(=O)N[C@@H](CCCNC(=N)N)C(=O)N[C@H](C(=O)N[C@@H](Cc1ccc(O)cc1)C(=O)N[C@@H](CCC(=O)O)C(=O)N[C@@H](Cc1c[nH]cn1)C(=O)N1CCC[C@H]1C(N)=O)C(C)C [SEQ ID NO:40, Sar-Arg-Val-Tyr-Glu-His-Pro-NH2] (H-[Sar]RVYEHP-NH2; N-terminus assumed) | inactive | Inactive | 87.9% | 31 nM | 53.2% |  |  | 
CNCC(=O)N[C@@H](CCCNC(=N)N)C(=O)N[C@H](C(=O)N[C@@H](Cc1ccc(O)cc1)C(=O)N[C@@H](Cc1ccccc1)C(=O)N[C@@H](Cc1c[nH]cn1)C(=O)N1CCC[C@H]1C(N)=O)C(C)C [SEQ ID NO:41, Sar-Arg-Val-Tyr-Phe-His-Pro-NH2] | inactive | Inactive | 53.1% |  | 30.1% | 1600 nM |  | 
CNCC(=O)N[C@@H](CCCNC(=N)N)C(=O)N[C@H](C(=O)N[C@@H](Cc1ccc(O)cc1)C(=O)N[C@@H](Cc1c[nH]cn1)C(=O)N[C@@H](Cc1c[nH]cn1)C(=O)N1CCC[C@H]1C(N)=O)C(C)C [SEQ ID NO:42, Sar-Arg-Val-Tyr-His-His-Pro-NH2] (H-[Sar]RVYHHP-NH2; N-terminus assumed) | inactive | Inactive | 74.9% | 270 nM | 46.4% | 630 nM |  | 
CNCC(=O)N[C@@H](CCCNC(=N)N)C(=O)N[C@H](C(=O)N[C@@H](Cc1ccc(O)cc1)C(=O)N[C@@H](CCCCN)C(=O)N[C@@H](Cc1c[nH]cn1)C(=O)N1CCC[C@H]1C(N)=O)C(C)C [SEQ ID NO:43, Sar-Arg-Val-Tyr-Lys-His-Pro-NH2] (H-[Sar]RVYKHP-NH2) | inactive |  | 64.8% |  | 42.7% |  | 260 nM | 17.9%
CNCC(=O)N[C@@H](CCCNC(=N)N)C(=O)N[C@H](C(=O)N[C@@H](Cc1ccc(O)cc1)C(=O)N[C@@H](CCCNC(=N)N)C(=O)N[C@@H](Cc1c[nH]cn1)C(=O)N1CCC[C@H]1C(N)=O)C(C)C [SEQ ID NO:45, Sar-Arg-Val-Tyr-Arg-His-Pro-NH2] (H-[Sar]RVYRHP-NH2; N-terminus assumed) | inactive |  | 91.7% | 27 nM | 53.3% |  |  | 10.2%
CC[C@H](C)[C@H](NC(=O)[C@H](Cc1ccc(O)cc1)NC(=O)[C@@H](NC(=O)[C@H](CCCNC(=N)N)NC(=O)[C@@H](C)NC)C(C)C)C(=O)N[C@@H](Cc1c[nH]cn1)C(=O)N1CCC[C@H]1C(=O)N[C@@H](C)C(=O)O [SEQ ID NO:47] |  | Inactive | 72.2% | 2100 nM | 80.5% |  |  | 
CC[C@H](C)[C@H](NC(=O)[C@H](Cc1ccccc1)NC(=O)[C@@H](NC(=O)[C@H](CCCNC(=N)N)NC(=O)CNC)C(C)C)C(=O)N[C@@H](Cc1c[nH]cn1)C(=O)N1CCC[C@H]1C(=O)N[C@H](C)C(=O)O [SEQ ID NO:48, Sar-Arg-Val-Phe-Ile-His-Pro-D-Ala-OH] | inactive |  | 42.1% |  | 48.1% |  | 200 nM | 13.9%
CC[C@H](C)[C@H](NC(=O)[C@H](Cc1ccc(O)cc1)NC(=O)[C@@H](NC(=O)[C@H](CCCCN)NC(=O)CNC)C(C)C)C(=O)N[C@@H](Cc1c[nH]cn1)C(=O)N1CCC[C@H]1C(=O)N[C@H](C)C(=O)O [SEQ ID NO:49, Sar-Lys-Val-Tyr-Ile-His-Pro-D-Ala-OH] | inactive | Inactive | 52.9% | 630 nM | 72.7% | 1000 nM |  | 
CC[C@H](C)[C@H](NC(=O)[C@H](Cc1ccc(O)cc1)NC(=O)[C@@H](NC(=O)[C@H](CCCNC(=N)N)NC(=O)CNC)C(C)C)C(=O)N[C@@H](CCCCN)C(=O)N1CCC[C@H]1C(=O)N[C@H](C)C(=O)O [SEQ ID NO:50, Sar-Arg-Val-Tyr-Ile-Lys-Pro-D-Ala-OH] (H-[Sar]RVYIKP[dA]-OH; N-terminus assumed) | inactive | Inactive | 85.6% | 270 nM | 56.8% | 680 nM |  | 
CC[C@H](C)[C@H](NC(=O)[C@H](Cc1ccc(O)cc1)NC(=O)[C@@H](NC(=O)[C@H](CCCNC(=N)N)NC(=O)CNC)C(C)C)C(=O)N[C@@H](Cc1c[nH]cn1)C(=O)N1CCC[C@@H]1C(N)=O [SEQ ID NO:51, Sar-Arg-Val-Tyr-Ile-His-D-Pro-NH2] | inactive | Inactive | 5.8% |  | 20.2% | 330 nM |  | 
CNCC(=O)N[C@@H](CCCNC(=N)N)C(=O)N[C@H](C(=O)N[C@@H](Cc1ccc(O)cc1)C(=O)N[C@@H](Cc1ccc(O)cc1)C(=O)N[C@@H](Cc1c[nH]cn1)C(=O)N1CCC[C@H]1C(=O)O)C(C)C [SEQ ID NO:52, Sar-Arg-Val-Tyr-Tyr-His-Pro-OH] | inactive |  | 83.8% |  | 45.9% | 1400 nM |  | 8.0%
CNCC(=O)N[C@@H](CCCNC(=N)N)C(=O)N[C@H](C(=O)N[C@@H](Cc1ccc(O)cc1)C(=O)N[C@H](C)C(=O)N[C@@H](Cc1c[nH]cn1)C(=O)N1CCC[C@H]1C(N)=O)C(C)C [SEQ ID NO:53, Sar-Arg-Val-Tyr-D-Ala-His-Pro-NH2] | inactive | Inactive | 12.2% |  | 33.6% | 1600 nM |  | 
